In ChEMBL document CHEMBL1158646, “Potential Antitumor Agents: A Cytotoxic Cardenolide From Coronilla varia” (1979):
≈ marks a conversion by molar mass, not a printed value. Calls of active or inactive are those of the source. The rule behind the calls is not given here.

Tests used:
[1] = Cytotoxicity against human 9KB cells; assay type: functional; conditions: read-out: ED50 (the source's name)
P388 [2] = assay: Antitumor activity against mouse P388 cells in mouse assessed as median survival time at 8 mg/kg relative to control; assay type: functional, organism-based; parameters: dose 8 mg/kg
P388 [3] = assay: Antitumor activity against mouse P388 cells in mouse assessed as median survival time at 1.25 mg/kg relative to control; assay type: functional
Lewis lung carcinoma = assay: Cytotoxicity against mouse LLC cells; assay type: functional, cell-based
B16 = assay: Cytotoxicity against mouse B16 cells; assay type: functional, cell-based
L1210 = assay: Cytotoxicity against mouse L1210 cells; assay type: functional, cell-based

Row | Compound | EC50 [1] | Activity (P388 [2]) | T/C (P388 [3]) | Activity (Lewis lung carcinoma) | Activity (B16) | Activity (L1210)
1 | C[C@]12CC[C@H]3[C@@H](CCC4=C[C@@H](O[C@@H]5OC[C@@H](O)[C@H](O)[C@H]5O)CC[C@@]43C=O)[C@@]1(O)CC[C@@H]2C1=CC(=O)OC1 [DEGLUCOHYRCANOSIDE] | 0.02 µg/mL (≈ 0.0386 µM) | inactive | – | – | – | –
2 | C[C@]12CC[C@H]3[C@@H](CCC4=C[C@@H](O[C@@H]5OC[C@@H](O[C@@H]6O[C@H](CO)[C@@H](O)[C@H](O)[C@H]6O)[C@H](O)[C@H]5O)CC[C@@]43C=O)[C@@]1(O)CC[C@@H]2C1=CC(=O)OC1 [HYRCANOSIDE] | 0.1 µg/mL (≈ 0.147 µM) | – | 133% | inactive | inactive | inactive
